Test results from patent publication US20220249523A1, “BENZOAZEPINE COMPOUND-CONTAINING FREEZE-DRIED COMPOSITION” (OTSUKA PHARMACEUTICAL CO., LTD., priority 2019, published 2022).
Blank lines part the entries; values can stand above or below the compound they belong to.

Legend:
Type in all cases: physicochemical
[1] = Appearance on reconstitution of freeze-dried compositions with water (foaming, cloudiness); conditions: freeze-dried compositions with a sucrose concentration of 4% or 7.5%, pH 8.0
[2] = Storage stability of freeze-dried compositions: amount of tolvaptan produced (HPLC area normalization); conditions: for Amount of tolvaptan produced (%): freeze-dried; for Amount of tolvaptan produced (%) / Amount of tolvaptan produced: 60° C. for 1 month; for Amount of tolvaptan produced: freeze-dried composition, compound (1) 0.1 w/v %
Protocol: Aqueous solutions containing compound (1) (0.1 w/v %), mannitol (4 w/v %), and sodium hydroxide (q.s.) were prepared (pH 7, 7.5, 8, 8.5, or 9) using a 20 mM disodium hydrogen phosphate buffer.
The aqueous solutions were each placed in a 2-mL glass vial, and frozen to a temperature of −40° C. or lower. Thereafter, the vials were depressurized to vacuum, and water was removed during freeze-drying to thus obtain freeze-dried compositions. The resulting products were stored at 40° C. for 3 months, or at 60° C. for 1 month; and then reconstituted with the same amount of water as that removed by freeze-drying, to return the products back to aqueous solutions. The amount of total degradation products or tolvaptan produced (%) in each of the obtained aqueous solutions was determined by the HPLC area normalization method.
Freeze-dried compositions were prepared in the same manner as in the “Analysis 1: Stability of Freeze-Dried Formulation of Compound (1)” section above using additives other than mannitol, i.e., NaCl, sorbitol, sucrose, maltose, trehalose, or lactose. Here, the pH of the aqueous solutions before preparing freeze-dried compositions was adjusted to 8.5. However, for lactose, the pH of the aqueous solution before preparing a freeze-dried composition was adjusted to 9.0 with a 24 mM sodium hydrogen carbonate buffer.
After the obtained freeze-dried compositions were stored at 60° C. for 1 month, the amount of tolvaptan produced was determined by the HPLC area normalization method, and the stability of compound (1) in each composition was analyzed. […] The reduction was particularly remarkable with sucrose, maltose, and lactose. Additionally, after storage at 60° C. for 1 week of the aqueous solutions before preparing freeze-dried compositions, the stability of compound (1) in each composition was analyzed. […] The results confirmed that the use of maltose or lactose increased the amount of tolvaptan produced (%).
Aqueous solutions with a pH of 7.5, 8, 8.5, or 9 were prepared in the same manner as in the “Analysis 2: Stability of Freeze-Dried Formulation of Compound (1)” section above, except that compound A at a concentration of 0.541 w/v % and sucrose at a concentration of 7.5 w/v % were used. The resulting aqueous solutions were freeze-dried to obtain freeze-dried compositions. The freeze-dried compositions were stored at 60° C. for 1 month. Thereafter, the amount of tolvaptan produced (%) was determined by the HPLC area normalization method.
An aqueous solution with a pH of 8.5 was prepared in the same manner as in the “Analysis 1: Stability of Freeze-Dried Formulation of Compound A” section above, using potassium phosphate instead of sodium phosphate as a buffering agent. Further, a freeze-dried composition was prepared to analyze the stability of compound A in the freeze-dried composition (after storage at 60° C. for 1 month). The amount of tolvaptan produced (%) was 0.07%, which was the same as when sodium phosphate was used.
Aqueous solutions with a pH of 8.0 were prepared in the same manner as in the “Analysis 1: Stability of Freeze-Dried Formulation of Compound A” section above, such that the sucrose concentration was 1%, 2%, 4%, or 7.5%. Further, the freeze-dried compositions were prepared to analyze the stability of compound A in the freeze-dried compositions (after storage at 60° C. for 1 month). The amount of tolvaptan produced (%) was 0.25% when the sucrose concentration was 1%, 0.12% when the sucrose concentration was 2%, 0.08% when the sucrose concentration was 4%, and 0.10% when the sucrose concentration was 7.5%.
In addition to the aqueous solution containing sodium phosphate at a concentration of 20 mM and having a pH of 8.5, aqueous solutions containing sodium phosphate at a concentration of 10 mM or 50 mM were also prepared as in the same manner as the “Analysis 1: Stability of Freeze-Dried Formulation of Compound A” section above. […]

[3] = pH at reconstitution with water of stored freeze-dried compositions; conditions: initial pH 8.5
Protocol: In addition to the aqueous solution containing sodium phosphate at a concentration of 20 mM and having a pH of 8.5, aqueous solutions containing sodium phosphate at a concentration of 10 mM or 50 mM were also prepared as in the same manner as the “Analysis 1: Stability of Freeze-Dried Formulation of Compound A” section above. Further, freeze-dried compositions were prepared to analyze the stability of compound A in the freeze-dried compositions (after storage at 60° C. for 1 month, or at 40° C. for 3 months). Thereafter, the pH at the time of reconstitution with water was analyzed.

[4] = Stability of metal salts of compound (1) in a solid state; conditions: compared to compound (1)
Protocol: (§1) The stability of these metal salts in a solid state was analyzed. […] Additionally, the solubility in water was analyzed.

[5] = Solubility in water of compound (1) and its metal salts
Protocol: as §1

[6] = Stability of phosphate ester bond in aqueous solution on high-pressure steam sterilization (HPLC area normalization); conditions: 0.1 w/v % aqueous solution, 121° C., 20 minutes
Protocol: Aqueous solutions containing compound (1) at a concentration of 0.1 w/v % were prepared, and the stability of the aqueous solutions when subjected to high-pressure steam sterilization (121° C., 20 minutes) was analyzed. The aqueous solutions were prepared using a 100 mM sodium phosphate buffer or a 100 mM Tris buffer. The pH of the aqueous solutions prepared using each of the buffers was adjusted with sodium hydroxide to prepare solutions with different pHs. After the treatment, the purity of compound (1) and the amount of tolvaptan produced were determined by the HPLC area normalization method.

Amount of tolvaptan produced (%) ([2]; compound A 0.541 w/v %, sucrose 7.5 w/v %, 20 mM sodium phosphate, pH 7.5): 0.22%
Amount of tolvaptan produced (%) ([2]; compound A 0.541 w/v %, sucrose 7.5 w/v %, 20 mM sodium phosphate, pH 8): 0.10%
Amount of tolvaptan produced (%) ([2]; compound A 0.541 w/v %, sucrose 7.5 w/v %, 20 mM sodium phosphate, pH 8.5): 0.07%
Amount of tolvaptan produced (%) ([2]; compound A 0.541 w/v %, sucrose 7.5 w/v %, 20 mM sodium phosphate, pH 9): below the detection limit
Amount of tolvaptan produced (%) ([2]; compound A, pH 8.0, sucrose concentration 1%): 0.25%
Amount of tolvaptan produced (%) ([2]; compound A, pH 8.0, sucrose concentration 2%): 0.12%
Amount of tolvaptan produced (%) ([2]; compound A, pH 8.0, sucrose concentration 4%): 0.08%
Amount of tolvaptan produced (%) ([2]; compound A, sucrose 7.5 w/v %, pH 8.5, sodium phosphate 10 mM): 0.07%
Amount of tolvaptan produced (%) ([2]; compound A, sucrose 7.5 w/v %, pH 8.5, sodium phosphate 50 mM): below the detection limit
Amount of tolvaptan produced (%) ([2]; compound A, sucrose 7.5 w/v %, potassium phosphate instead of sodium phosphate, pH 8.5): 0.07%
pH at 40° C. 3 months later ([3]; sodium phosphate 10 mM): 8.16
pH at 60° C. 1 month later ([3]; sodium phosphate 10 mM): 8.24
pH at 40° C. 3 months later ([3]; sodium phosphate 20 mM): 8.24
pH at 60° C. 1 month later ([3]; sodium phosphate 20 mM): 8.34
pH at 40° C. 3 months later ([3]; sodium phosphate 50 mM): 8.30
pH at 60° C. 1 month later ([3]; sodium phosphate 50 mM): 8.36
Stability in a solid state [4]: remarkably improved stability
Solubility in water [5]: ≥ 4 w/v %
Compound: Cc1ccccc1C(=O)Nc1ccc(C(=O)N2CCCC(OP(=O)([O-])[O-])c3cc(Cl)ccc32)c(C)c1.[Na+].[Na+] (stereo not drawn) [compound A]
Appearance when reconstituted with water [1]: foaming and slight cloudiness were observed

Compound: [O-][n+]1ccccc1[S-].[O-][n+]1ccccc1[S-].[Zn+2] [Zinc salt]
Stability in a solid state [4]: remarkably improved stability
Solubility in water [5]: 0.003 w/v %

Stability of phosphate ester bond on high-pressure steam sterilization ([6]; sodium phosphate buffer having a pH of 7.5 or more): highly stable
Stability of phosphate ester bond on high-pressure steam sterilization ([6]; tolvaptan formed as a precipitate): hydrolyzed
Amount of tolvaptan produced ([2]; mannitol 4 w/v %, solution pH 8.5): 1.45%
Amount of tolvaptan produced ([2]; mannitol 4 w/v %, solution pH 9): 0.9%
Stability in freeze-dried compositions ([2]; mannitol 4 w/v %, solutions with a pH exceeding 8, storage at 60° C.): relatively stable
Solubility in water [5]: 0.14 w/v %
Compound: Cc1ccccc1C(=O)Nc1ccc(C(=O)N2CCCC(OP(=O)(O)O)c3cc(Cl)ccc32)c(C)c1 (stereo not drawn) [compound (1)]
